According to patent publication US9051311B2, “Sulfamide sodium channel inhibitors” (AMGEN INC., priority 2012, dated 2015):
Counter-ions that a name gives are not always drawn.

Experiments:
[1] = target: T1, Nav 1.7 (Homo sapiens (Human), UniProt Q15858); experiment: Nav 1.7 IonWorks Quattro (IWQ) in vitro assay, population patch-clamp; type: cell-based; conditions: 293 cells stably transfected with Nav 1.7; block at 26th pulse to −20 mV;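 further: cells held at −110 mV for 3 s, then 26 pulses of 150 ms at 5 Hz, leak-corrected peak current, percent block measured before and after compound, 3–8 min exposure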
T1 sequence (Q15858 whole entry): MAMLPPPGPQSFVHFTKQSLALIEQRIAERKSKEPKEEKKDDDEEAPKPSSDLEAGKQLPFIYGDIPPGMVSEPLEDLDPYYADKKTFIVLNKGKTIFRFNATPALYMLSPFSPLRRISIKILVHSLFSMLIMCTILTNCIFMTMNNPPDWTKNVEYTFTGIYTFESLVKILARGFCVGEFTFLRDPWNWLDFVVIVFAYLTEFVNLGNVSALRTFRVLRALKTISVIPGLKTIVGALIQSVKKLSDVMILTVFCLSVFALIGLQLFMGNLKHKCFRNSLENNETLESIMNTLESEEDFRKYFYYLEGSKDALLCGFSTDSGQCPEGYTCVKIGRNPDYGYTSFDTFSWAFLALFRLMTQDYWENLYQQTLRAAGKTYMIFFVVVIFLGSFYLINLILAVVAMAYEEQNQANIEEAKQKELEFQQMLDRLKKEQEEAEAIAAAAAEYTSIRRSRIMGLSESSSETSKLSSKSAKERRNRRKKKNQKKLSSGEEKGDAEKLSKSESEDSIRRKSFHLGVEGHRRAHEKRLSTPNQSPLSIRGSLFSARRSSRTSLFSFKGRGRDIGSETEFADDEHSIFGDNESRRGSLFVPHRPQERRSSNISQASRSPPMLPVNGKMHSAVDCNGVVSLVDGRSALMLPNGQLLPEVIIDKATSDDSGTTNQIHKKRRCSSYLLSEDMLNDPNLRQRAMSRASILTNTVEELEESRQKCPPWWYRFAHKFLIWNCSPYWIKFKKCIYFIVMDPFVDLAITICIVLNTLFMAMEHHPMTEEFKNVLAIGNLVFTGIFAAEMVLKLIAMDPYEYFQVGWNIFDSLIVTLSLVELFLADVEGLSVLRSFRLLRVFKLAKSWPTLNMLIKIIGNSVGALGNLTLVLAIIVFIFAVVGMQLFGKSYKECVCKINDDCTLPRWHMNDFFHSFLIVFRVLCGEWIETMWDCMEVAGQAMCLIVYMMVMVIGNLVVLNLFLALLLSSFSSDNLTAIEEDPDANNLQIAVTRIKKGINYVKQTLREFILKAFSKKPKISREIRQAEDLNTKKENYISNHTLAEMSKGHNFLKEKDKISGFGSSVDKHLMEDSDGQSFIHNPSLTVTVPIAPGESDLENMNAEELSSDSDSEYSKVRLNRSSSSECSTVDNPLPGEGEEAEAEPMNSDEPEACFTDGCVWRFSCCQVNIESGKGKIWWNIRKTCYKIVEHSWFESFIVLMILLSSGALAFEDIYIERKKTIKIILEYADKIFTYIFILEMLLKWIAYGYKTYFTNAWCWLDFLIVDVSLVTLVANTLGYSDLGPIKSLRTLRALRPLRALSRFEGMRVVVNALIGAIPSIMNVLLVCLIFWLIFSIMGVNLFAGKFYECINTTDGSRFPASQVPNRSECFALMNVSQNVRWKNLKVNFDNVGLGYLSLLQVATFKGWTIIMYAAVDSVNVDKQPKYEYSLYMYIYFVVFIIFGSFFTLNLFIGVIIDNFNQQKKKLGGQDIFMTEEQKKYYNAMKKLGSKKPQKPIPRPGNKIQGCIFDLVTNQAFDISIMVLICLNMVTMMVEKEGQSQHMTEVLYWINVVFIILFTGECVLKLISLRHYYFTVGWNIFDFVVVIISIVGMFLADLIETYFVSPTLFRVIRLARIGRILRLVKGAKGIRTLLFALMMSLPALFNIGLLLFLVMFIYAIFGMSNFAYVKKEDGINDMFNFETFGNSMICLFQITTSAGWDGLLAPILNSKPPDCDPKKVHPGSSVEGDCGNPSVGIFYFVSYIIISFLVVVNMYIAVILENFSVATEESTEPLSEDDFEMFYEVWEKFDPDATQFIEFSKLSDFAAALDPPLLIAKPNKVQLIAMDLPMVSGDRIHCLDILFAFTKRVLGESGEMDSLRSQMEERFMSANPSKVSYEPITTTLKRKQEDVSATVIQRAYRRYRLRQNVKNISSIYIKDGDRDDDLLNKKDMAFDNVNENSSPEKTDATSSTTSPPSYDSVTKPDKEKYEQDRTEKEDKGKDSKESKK
Protocol: (§1) Nav 1.7 and Nav 1.5 Ion Works Quattro (IWQ) In Vitro Assays
(§2) 293 cells stably transfected with either Nav 1.7 or with Nav 1.5 were recorded in population patch-clamp mode with the IonWorks® Quattro automated electrophysiology system in accordance with the manufacturer's specifications (Molecular Devices, LLC, Sunnyvale, Calif.). Sodium channel currents were measured in response to a train of depolarizations that induced successively greater inactivation.
(§3) Cells were held at −110 mV for three seconds (Nav 1.7) or half a second (Nav 1.5) from a holding voltage of −15 mV, then put through a series of 26 pulses of 150 msec duration to −20 mV at a frequency of 5 Hz. Cells were then left unclamped for a period of 3 to 8 minutes while a single concentration of test compound was added. Cells were then reclamped and put through the same voltage protocol. Current at the end of the 26th pulse to −20 mV was subtracted from the peak current evoked by the 26th pulse to −20 mV to correct for leak current. Percent block was calculated for each concentration in duplicate, and IC50 curves were fitted to percent block as a function of concentration.

[2] = target: T1, Nav 1.7; experiment: Nav 1.7 in vitro PatchExpress (PX) assay, whole cell voltage clamp; type: cell-based; conditions: 293 cells stably transfected with human Nav1.7; partially inactivated state (20 to 50% inactivation)
Protocol: Nav 1.7 In Vitro PatchExpress (PX) Assay
293 cells stably transfected with human Nav1.7 were recorded in whole cell voltage clamp mode with the PatchXpress automated electrophysiology system (Molecular Devices, LLC, Sunnyvale, Calif.). Compound effects were measured on a partially inactivated state of the sodium channel. Cells were clamped to a holding potential yielding 20 to 50% inactivation. To elicit sodium current, channels were activated by pulsing to −10 mV for 20 msec. This voltage protocol was repeated at a rate of 0.1 Hz throughout the experiment. A single concentration of test compound was applied to cells for a duration of 3 minutes. Peak sodium current was measured at the end of the compound addition period to determine percent inhibition.

[3] = target: Nav 1.5 (Homo sapiens (Human), UniProt Q14524); experiment: cell-based;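 further: HEK293 cells stably expressing Nav1.5, sodium current at the 26th of 26 pulses to −20 mV (150 ms, 5 Hz) after compound versus before, leak-corrected, 3–8 min exposure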
Nav 1.5, sequence (Q14524 whole entry): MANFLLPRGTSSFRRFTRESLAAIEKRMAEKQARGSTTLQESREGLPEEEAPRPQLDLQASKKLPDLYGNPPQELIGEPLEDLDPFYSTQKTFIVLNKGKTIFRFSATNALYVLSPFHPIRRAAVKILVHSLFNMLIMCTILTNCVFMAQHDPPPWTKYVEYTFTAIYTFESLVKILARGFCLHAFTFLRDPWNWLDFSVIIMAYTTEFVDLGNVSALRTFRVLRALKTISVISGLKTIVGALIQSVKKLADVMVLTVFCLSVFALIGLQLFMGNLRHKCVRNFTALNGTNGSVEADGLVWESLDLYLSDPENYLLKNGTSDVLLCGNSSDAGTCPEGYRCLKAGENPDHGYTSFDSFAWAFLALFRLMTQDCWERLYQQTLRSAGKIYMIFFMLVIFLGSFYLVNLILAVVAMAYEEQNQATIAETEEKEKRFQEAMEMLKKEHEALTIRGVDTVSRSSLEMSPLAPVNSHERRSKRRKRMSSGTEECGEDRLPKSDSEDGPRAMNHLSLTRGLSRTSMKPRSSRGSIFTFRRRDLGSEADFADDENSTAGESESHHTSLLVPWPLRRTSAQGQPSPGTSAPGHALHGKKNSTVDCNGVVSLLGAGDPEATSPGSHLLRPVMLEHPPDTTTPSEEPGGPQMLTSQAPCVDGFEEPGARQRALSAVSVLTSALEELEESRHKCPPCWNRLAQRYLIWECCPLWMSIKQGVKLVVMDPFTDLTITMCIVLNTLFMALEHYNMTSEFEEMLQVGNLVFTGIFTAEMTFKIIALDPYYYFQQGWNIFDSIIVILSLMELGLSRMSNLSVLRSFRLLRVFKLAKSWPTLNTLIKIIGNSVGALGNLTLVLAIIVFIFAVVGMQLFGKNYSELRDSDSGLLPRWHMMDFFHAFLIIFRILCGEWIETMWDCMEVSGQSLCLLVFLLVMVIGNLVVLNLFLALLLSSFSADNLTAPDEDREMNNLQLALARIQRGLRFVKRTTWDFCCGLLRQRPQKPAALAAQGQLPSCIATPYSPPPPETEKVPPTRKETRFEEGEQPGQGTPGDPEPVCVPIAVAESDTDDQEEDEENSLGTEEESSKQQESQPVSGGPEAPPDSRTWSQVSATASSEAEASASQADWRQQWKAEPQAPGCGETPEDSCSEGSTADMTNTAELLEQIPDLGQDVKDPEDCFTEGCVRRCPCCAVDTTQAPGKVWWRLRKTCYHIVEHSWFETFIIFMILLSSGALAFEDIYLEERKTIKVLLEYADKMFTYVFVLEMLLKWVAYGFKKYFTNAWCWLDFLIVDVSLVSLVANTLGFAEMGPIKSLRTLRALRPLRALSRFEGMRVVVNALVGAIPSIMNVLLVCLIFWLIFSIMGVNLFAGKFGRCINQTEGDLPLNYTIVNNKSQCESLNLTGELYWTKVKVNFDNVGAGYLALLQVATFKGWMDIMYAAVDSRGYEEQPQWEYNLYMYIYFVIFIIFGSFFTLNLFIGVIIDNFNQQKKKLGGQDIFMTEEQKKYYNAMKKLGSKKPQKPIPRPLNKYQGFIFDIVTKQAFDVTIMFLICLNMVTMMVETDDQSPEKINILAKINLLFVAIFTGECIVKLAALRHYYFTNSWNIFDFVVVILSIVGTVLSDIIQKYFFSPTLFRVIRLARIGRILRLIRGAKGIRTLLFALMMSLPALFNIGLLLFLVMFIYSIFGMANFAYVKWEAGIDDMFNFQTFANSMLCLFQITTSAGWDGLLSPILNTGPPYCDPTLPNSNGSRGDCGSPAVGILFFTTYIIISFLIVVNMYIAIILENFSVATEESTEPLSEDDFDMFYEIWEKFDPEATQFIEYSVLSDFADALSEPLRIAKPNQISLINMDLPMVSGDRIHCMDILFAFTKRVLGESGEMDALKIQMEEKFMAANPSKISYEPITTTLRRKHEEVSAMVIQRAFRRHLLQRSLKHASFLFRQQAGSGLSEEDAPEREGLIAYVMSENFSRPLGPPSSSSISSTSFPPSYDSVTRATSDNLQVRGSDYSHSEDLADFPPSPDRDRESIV
Protocol: as §1, §2, §3

| SMILES | IC50 [1] [µM] | IC50 [2] [µM] | IC50 [3] [µM] |
| --- | --- | --- | --- |
| COc1cc(C(F)(F)F)ccc1-c1cccc2c1C(C)CN(S(=O)(=O)Nc1ncns1)C2 (racemic) [Example 48, 5-(2-Methoxy-4-(trifluoromethyl)phenyl)-4-methyl-N-(1,2,4-thiadiazol-5-yl)-3,4-dihydroisoquinoline-2(1H)-sulfonamide] | 4.1 | 6.11 | 7.26 |
| Cn1nccc1-c1cc(C(F)(F)F)ccc1-c1cccc2c1CCN(S(=O)(=O)Nc1ncns1)C2 [Example 1, 5-(2-(1-Methyl-1H-pyrazol-5-yl)-4-(trifluoromethyl)phenyl)-N-(1,2,4-thiadiazol-5-yl)-3,4-dihydroisoquinoline-2(1H)-sulfonamide] | 0.0363 | 0.12 | > 10 |
| O=S(=O)(Nc1ncns1)N1CCc2c(cccc2-c2ccc(C(F)(F)F)cc2-c2ccncc2)C1 [Example 2, 5-(2-(Pyridin-4-yl)-4-(trifluoromethyl)phenyl)-N-(1,2,4-thiadiazol-5-yl)-3,4-dihydroisoquinoline-2(1H)-sulfonamide] | 0.217 | 0.64 | > 10 |
| Cn1nccc1-c1cc(C(F)(F)F)ccc1-c1cccc2c1CCN(S(=O)(=O)Nc1nccs1)C2 [Example 3, 5-(2-(1-methyl-1H-pyrazol-5-yl)-4-(trifluoromethyl)phenyl)-N-(thiazol-2-yl)-3,4-dihydroisoquinoline-2(1H)-sulfonamide] | 0.414 | 2.01 | > 10 |
| O=S(=O)(Nc1ncns1)N1CCc2c(cccc2-c2ccc(C(F)(F)F)cc2Br)C1 [Example 4, 5-(2-Bromo-4-(trifluoromethyl)phenyl)-N-(1,2,4-thiadiazol-5-yl)-3,4-dihydroisoquinoline-2(1H)-sulfonamide] | 0.527 | 0.56 | > 10 |
| O=S(=O)(Nc1ncns1)N1CCc2c(cccc2-c2ccc(C(F)(F)F)cc2)C1 [Example 7, N-(1,2,4-Thiadiazol-5-yl)-5-(4-(trifluoromethyl)phenyl)-3,4-dihydroisoquinoline-2(1H)-sulfonamide] | 1.64 | 5.8 | > 10 |
| O=S(=O)(Nc1ncns1)N1CCc2c(cccc2-c2ccc(C(F)(F)F)cc2F)C1 [Example 8, 5-(2-Fluoro-4-(trifluoromethyl)phenyl)-N-(1,2,4-thiadiazol-5-yl)-3,4-dihydroisoquinoline-2(1H)-sulfonamide] | 1.84 | 3.13 | > 10 |
| O=S(=O)(Nc1ncns1)N1CCc2c(cccc2-c2ccc(C(F)(F)F)cc2Cl)C1 [Example 9, 5-(2-Chloro-4-(trifluoromethyl)phenyl)-N-(1,2,4-thiadiazol-5-yl)-3,4-dihydroisoquinoline-2(1H)-sulfonamide] | 0.477 | 0.61 | > 10 |
| O=S(=O)(Nc1ncns1)N1CCc2c(cccc2-c2ccc(Cl)cc2)C1 [Example 10] | 5.47 | 7.46 | > 10 |
| O=S(=O)(Nc1ncns1)N1CCc2c(cccc2-c2ccc(Cl)cc2Cl)C1 [Example 12, 5-(2,4-Dichlorophenyl)-N-(1,2,4-thiadiazol-5-yl)-3,4-dihydroisoquinoline-2(1H)-sulfonamide] | 2.41 | 1.33 | > 10 |
| O=S(=O)(Nc1ncns1)N1CCc2c(cccc2-c2cccc3c2CCNC3)C1 [Example 13, N-(1,2,4-Thiadiazol-5-yl)-1′,2′,3,3′,4,4′-hexahydro-[5,5′-biisoquinoline]-2(1H)-sulfonamide hydrochloride] | 3.87 | > 30 | > 10 |
| COc1cncc(-c2cc(C(F)(F)F)ccc2-c2cccc3c2CCN(S(=O)(=O)Nc2ncns2)C3)c1 [Example 20, 5-(2-(5-Methoxypyridin-3-yl)-4-(trifluoromethyl)phenyl)-N-(1,2,4-thiadiazol-5-yl)-3,4-dihydroisoquinoline-2(1H)-sulfonamide] | 5.83 |  | > 10 |
| Cc1cncc(-c2cc(C(F)(F)F)ccc2-c2cccc3c2CCN(S(=O)(=O)Nc2ncns2)C3)c1 [Example 21, 5-(2-(5-Methylpyridin-3-yl)-4-(trifluoromethyl)phenyl)-N-(1,2,4-thiadiazol-5-yl)-3,4-dihydroisoquinoline-2(1H)-sulfonamide] | 1.8 |  | 4.08 |
| O=S(=O)(Nc1ncns1)N1CCc2c(cccc2-c2cncc3ccccc23)C1 [Example 25, N-(1,2,4-Thiadiazol-5-yl)-3′,4′-dihydro-[4,5′-biisoquinoline]-2′(1′H)-sulfonamide] | 6.9 |  | > 10 |
| COc1ncccc1-c1cccc2c1CCN(S(=O)(=O)Nc1ncns1)C2 [Example 50, 5-(2-Methoxypyridin-3-yl)-N-(1,2,4-thiadiazol-5-yl)-3,4-dihydroisoquinoline-2(1H)-sulfonamide] | 7.6 |  | > 10 |
| O=S(=O)(Nc1ncns1)N1CCc2c(cccc2-c2cccc3[nH]ncc23)C1 [Example 51, 5-(1H-Indazol-4-yl)-N-(1,2,4-thiadiazol-5-yl)-3,4-dihydroisoquinoline-2(1H)-sulfonamide] | 19.1 |  | > 10 |
| CN1CC=C(c2cc(Cl)cc(F)c2-c2cccc3c2CCN(S(=O)(=O)Nc2ncc(F)s2)C3)CC1 [Example 54, 5-(4-Chloro-2-fluoro-6-(1-methyl-1,2,3,6-tetrahydropyridin-4-yl)phenyl)-N-(5-fluorothiazol-2-yl)-3,4-dihydroisoquinoline-2(1H)-sulfonamide] | 14.9 |  | > 10 |
| COc1cc(C(F)(F)F)ccc1-c1cccc2c1CN(S(=O)(=O)Nc1ncns1)CC2 [Example 55, 8-(2-Methoxy-4-(trifluoromethyl)phenyl)-N-(1,2,4-thiadiazol-5-yl)-3,4-dihydroisoquinoline-2(1H)-sulfonamide] | 9.44 |  | > 10 |
| CC(C)(C)OC(=O)N1CC=C(c2cccc3c2CCN(S(=O)(=O)Nc2ncns2)C3)CC1 [Example 57, tert-Butyl 4-(2-(N-(1,2,4-thiadiazol-5-yl)sulfamoyl)-1,2,3,4-tetrahydroisoquinolin-5-yl)-5,6-dihydropyridine-1(2H)-carboxylate] | 7.1 |  | > 10 |
| COc1cc(C(F)(F)F)ccc1-c1ncnc2c1CCN(S(=O)(=O)Nc1ncc(F)s1)C2 [Example 60, N-(5-fluorothiazol-2-yl)-4-(2-methoxy-4-(trifluoromethyl)phenyl)-5,6-dihydropyrido[3,4-d]pyrimidine-7(8H)-sulfonamide] |  | 0.81 |  |
| COc1cc(-c2ccc(F)c(F)c2)ccc1-c1cccc2c1CCN(S(=O)(=O)Nc1nncs1)C2 [Example 62, 5-(3′,4′-difluoro-3-methoxy-[1,1′-biphenyl]-4-yl)-N-(1,3,4-thiadiazol-2-yl)-3,4-dihydroisoquinoline-2(1H)-sulfonamide] |  | 8.05 |  |
| COc1ccc(-c2ccc(F)c(F)c2)cc1-c1cccc2c1CCN(S(=O)(=O)Nc1nncs1)C2 [Example 63, 5-(3′,4′-difluoro-4-methoxy-[1,1′-biphenyl]-3-yl)-N-(1,3,4-thiadiazol-2-yl)-3,4-dihydroisoquinoline-2(1H)-sulfonamide] |  | 11.2 |  |
| COc1cc(C(F)(F)F)ccc1-c1ccnc2c1CCN(S(=O)(=O)Nc1ccncn1)C2 [Example 64, 4-(2-methoxy-4-(trifluoromethyl)phenyl)-N-4-pyrimidinyl-5,8-dihydro-1,7-naphthyridine-7(6H)-sulfonamide] |  | 6.19 |  |
